Source: patent publication US20110152091A1, “Herbicidal Compositions Comprising Flufenacet” (BAYER CROPSCIENCE AG, priority 2009, published 2011)

Experiments:
Assay type in all cases: in vivo
[1] = test system: Triticum aestivum, winter wheat (TRZAW); assay: Greenhouse trial: pre-sowing method vs PE application, crop plant (test method 6); details: g of AS/ha: A 90, B 90, C 140, mixture 90 + 90 + 140
Protocol: (§1) In the standard design of the test, seeds of various broad-leaved weed and weed grass biotypes (origins) were sown in a 8-13 cm diameter pot filled with natural soil of a standard field soil (loamy silt; non-sterile) and covered with a covering soil layer of about 1 cm. The pots were then cultivated in a greenhouse (12-16 h of light, temperature day 20-22° C., night 15-18° C.) until the time of application. The pots were treated on a laboratory track sprayer with spray liquors comprising the compositions according to the invention, mixtures of the prior art or components used individually. Application of the active compounds or active compound combinations formulated as WG, WP, EC or otherwise was carried out at the appropriate growth stages of the plants. The application rate for the spray application was 100-600 l of water/ha. After the treatment, the plants were returned to the greenhouses.
(§2) About 3 weeks after the application, the soil action or/and foliar action was assessed visually according to a scale of 0-100% in comparison to an untreated comparative group: 0%=no noticeable effect compared to the untreated comparative group; 100%=full effect compared to the untreated comparative group.
(§3) (notes: the term “seeds” also includes vegetative propagation forms such as, for example, rhizome pieces; abbreviations used: h light=hours of illumination, g of AS/ha=gram of active substance per hectare, l/ha=liter per hectare, S=sensitive, R=resistant) • 1. Pre-emergence action against weeds: seeds of various broad-leaved weed and weed grass biotypes (origins) were sown in a 8-13 cm diameter pot filled with natural soil of a standard field soil (loamy silt; non-sterile) and covered with a covering soil layer of about 1 cm. The pots were then cultivated in a greenhouse (12-16 h of light, temperature day 20-22° C., night 15-18° C.) until the time of application. The pots were treated at the BBCH stage 00-10 of the seeds/plants on a laboratory track sprayer with spray liquors comprising the compositions according to the invention, mixtures or components used individually, as WG, WP, EC or other formulations. The application rate for the spray application was 100-600 l of water/ha. After the treatment, the plants were returned to the greenhouses and, when required, treated with fertilizer and watered. • 2. Post-emergence action against weeds: seeds of various broad-leaved weed and weed grass biotypes (origins) were sown in a 8-13 cm diameter pot filled with natural soil of a standard field soil (loamy silt; non-sterile) and covered with a covering soil layer of about 1 cm. The pots were then cultivated in a greenhouse (12-16 h of light, temperature day 20-22° C., night 15-18° C.) until the time of application. The pots were treated at various BBCH stages between 11-25 of the seeds/plants, i.e. generally between two to three weeks after the start of the cultivation, on a laboratory track sprayer with spray liquors comprising the compositions according to the invention, mixtures or components used individually, as WG, WP, EC or other formulations. The application rate for the spray application was 100-600 l of water/ha. After the treatment, the plants were returned to the greenhouses and, when required, treated with fertilizer and watered. • 3. Pre-emergence action against weeds with and without incorporation of active compound: seeds of various broad-leaved weed and weed grass biotypes (origins) were sown in a 8-13 cm diameter pot filled with natural soil of a standard field soil (loamy silt; non-sterile). […]

Avena fatua (AVEFA) [2] = assay: Greenhouse trial: pre-sowing method vs PE application (test method 6); details: g of AS/ha: A 90, B 90, C 140, mixture 90 + 90 + 140
Protocol: as §1, §2, §3

Lolium perenne (LOLPE) = assay: as above; details: g of AS/ha: A 90, B 90, C 140, mixture 90 + 90 + 140
Protocol: as §1, §2, §3

[3] = test system: Triticum aestivum, winter wheat (TRZAW); assay: Greenhouse trial: PE soil application vs incorporation into the soil, crop plant (test methods 1, 3 and 4); details: g of AS/ha: A 75, B 60, C 70, mixture 75 + 60 + 70
Protocol: as §1, §2, §3

[4] = test system: Hordeum vulgare, summer barley (HORVS); assay: Greenhouse trial: different soil types, crop plant (test method 7); details: g of AS/ha: A 90, B 90, C 140, mixture 90 + 90 + 140
Protocol: as §1, §2, §3

[5] = test system: Apera Spica-venti (APESV); assay: Greenhouse trial: PO application (test methods 2 and 5); details: g of AS/ha: A 240, B 120, C 140, mixture 240 + 120 + 140
Protocol: as §1
(§4) About 3 weeks after the application, the soil action or/and foliar action was assessed visually according to a scale of 0-100% in comparison to an untreated comparative group: 0%=no noticeable effect compared to the untreated comparative group; 100%=full effect compared to the untreated comparative group. […]

[6] = test system: Hordeum vulgare, summer barley (HORVS); assay: Greenhouse trial: PO application, crop plant (test methods 2 and 5); details: g of AS/ha: A 240, B 120, C 140, mixture 240 + 120 + 140
Protocol: as §1, §2
(notes: the term “seeds” also includes vegetative propagation forms such as, for example, rhizome pieces; abbreviations used: h light=hours of illumination, g of AS/ha=gram of active substance per hectare, l/ha=liter per hectare, S=sensitive, R=resistant) • 1. Pre-emergence action against weeds: seeds of various broad-leaved weed and weed grass biotypes (origins) were sown in a 8-13 cm diameter pot filled with natural soil of a standard field soil (loamy silt; non-sterile) and covered with a covering soil layer of about 1 cm. The pots were then cultivated in a greenhouse (12-16 h of light, temperature day 20-22° C., night 15-18° C.) until the time of application. […]

Stellaria media (STEME) [7] = assay: Greenhouse trial: PE soil application vs incorporation into the soil (test methods 1, 3 and 4); details: g of AS/ha: A 75, B 60, C 70, mixture 75 + 60 + 70
Protocol: as §1, §2, §3

Poa annua (POAAN) = assay: as above; details: g of AS/ha: A 75, B 60, C 70, mixture 75 + 60 + 70
Protocol: as §1, §2, §3

[8] = test system: Hordeum vulgare, summer barley (HORVS); assay: Greenhouse trial: different sowing depths on PE application, crop plant (test method 9); details: g of AS/ha: A 90, B 90, C 140, mixture 90 + 90 + 140; for activity HORVS 5 mm (visual, scale 0-100%): Sowing depth 5 mm; for activity HORVS 20 mm (visual, scale 0-100%): Sowing depth 20 mm
Protocol: as §1, §2, §3

[9] = test system: Hordeum vulgare, summer barley (HORVS); assay: Greenhouse trial: different soil pH values on PE application, crop plant (test method 11); details: for activity HORVS pH 7.4 (visual, scale 0-100%): soil pH 7.4, g of AS/ha: A 90, B 90, C 140, mixture 90 + 90 + 140; for activity HORVS pH 8.4 (visual, scale 0-100%): soil pH 8.4, g of AS/ha: A 90, B 90, C 140, mixture 90 + 90 + 140
Protocol: as §1, §2, §3

Stellaria media (STEME) [10] = assay: Greenhouse trial: different soil types (test method 7); details: g of AS/ha: A 90, B 90, C 140, mixture 90 + 90 + 140
Protocol: as §1, §2, §3

[11] = test system: Matricaria chamomilla (MATCH); assay: as above; details: g of AS/ha: A 90, B 90, C 140, mixture 90 + 90 + 140
Protocol: as §1, §2, §3

Avena fatua (AVEFA) [12] = assay: Greenhouse trial: different soil pH values on PE application (test method 11); details: for activity AVEFA pH 7.4 (visual, scale 0-100%): soil pH 7.4, g of AS/ha: A 90, B 90, C 140, mixture 90 + 90 + 140; for activity AVEFA pH 8.4 (visual, scale 0-100%): soil pH 8.4, g of AS/ha: A 90, B 90, C 140, mixture 90 + 90 + 140
Protocol: as §1, §2, §3

[13] = test system: Matricaria chamomilla (MATCH); assay: Greenhouse trial: different sowing depths on PE application (test method 9); details: g of AS/ha: A 90, B 90, C 140, mixture 90 + 90 + 140
Protocol: as §1, §4

[14] = test system: Lolium species (LOLSS), sensitive and resistant biotypes; assay: Greenhouse trial: resistant biotypes following PE application (test method 8); details: g of AS/ha: A 90, B 90, C 140, mixture 90 + 90 + 140, iodosulfuron 10
Protocol: as §1, §4

[15] = Application 7 days prior to sowing

| SMILES | activity TRZAW (visual, scale 0-100%) [1, 15] | activity TRZAW (visual, scale 0-100%) ([1]; PE application) | activity AVEFA (visual, scale 0-100%) (Avena fatua (AVEFA) [2]; PE application) | activity LOLPE (visual, scale 0-100%) (Lolium perenne (LOLPE); PE application) | activity TRZAW (visual, scale 0-100%) ([3]; Incorporation into the soil) | activity TRZAW (visual, scale 0-100%) ([3]; PE application) | activity HORVS IU soil (visual, scale 0-100%) [4] | activity HORVS IU/EC73 soil (visual, scale 0-100%) [4] | activity APESV (visual, scale 0-100%) [5] | activity HORVS (visual, scale 0-100%) [6] | activity STEME (visual, scale 0-100%) (Stellaria media (STEME) [7]; PE application) | activity POAAN (visual, scale 0-100%) (Poa annua (POAAN); Incorporation into the soil) | activity HORVS 5 mm (visual, scale 0-100%) [8] | activity HORVS 20 mm (visual, scale 0-100%) [8] | activity HORVS pH 7.4 (visual, scale 0-100%) [9] | activity HORVS pH 8.4 (visual, scale 0-100%) [9] | activity STEME IU soil (visual, scale 0-100%) (Stellaria media (STEME) [10]) | activity STEME IU/EC73 soil (visual, scale 0-100%) (Stellaria media (STEME) [10]) | activity AVEFA pH 7.4 (visual, scale 0-100%) (Avena fatua (AVEFA) [12]) | activity AVEFA pH 8.4 (visual, scale 0-100%) (Avena fatua (AVEFA) [12]) | also measured |
| --- | --- | --- | --- | --- | --- | --- | --- | --- | --- | --- | --- | --- | --- | --- | --- | --- | --- | --- | --- | --- | --- |
| CC(C)N(C(=O)COc1nnc(C(F)(F)F)s1)c1ccc(F)cc1 [(A) flufenacet, N-(4-fluorophenyl)-N-(1-methylethyl)-2-[[5-(trifluoromethyl)-1,3,4-thiadiazol-2-yl]oxy]acetamide] | 60% | 30% | 80% | 90% | 60% | 20% | 10% | 0% | 65% | 60% | 0% | 90% | 30% | 20% | 10% | 10% | 0% | 0% | 80% | 55% | activity POAAN (visual, scale 0-100%) (Poa annua (POAAN); PE application): 65%; activity MATCH IU soil (visual, scale 0-100%) [11]: 28% |
| O=C(Nc1ccc(F)cc1F)c1cccnc1Oc1cccc(C(F)(F)F)c1 [(B) diflufenican, N-(2,4-difluorophenyl)-2-[3-(trifluoromethyl)phenoxy]-3-pyridinecarboxamide] | 10% | 10% | – | 60% | 20% | 10% | 0% | 0% | – | 5% | – | 75% | 30% | 5% | 0% | 0% | 95% | 38% | 0% | 30% | activity LOLPE (visual, scale 0-100%) (Lolium perenne (LOLPE); [15]): 0% |
| CSc1nnc(C(C)(C)C)c(=O)n1N [(C) metribuzin, 4-amino-6-(1,1-dimethylethyl)-3-(methylthio)-1,2,4-triazin-5(4H)-one] | 0% | 55% | 10% | 50% | 55% | 30% | 0% | 0% | 79% | 70% | 75% | 15% | 70% | 30% | 40% | 50% | 75% | 5% | 90% | 90% | activity MATCH 5 mm (visual, scale 0-100%) ([13]; Sowing depth 5 mm): 100%; activity MATCH 20 mm (visual, scale 0-100%) ([13]; Sowing depth 20 mm): 70%; activity AVEFA (visual, scale 0-100%) (Avena fatua (AVEFA) [2]; [15]): 0%; activity LOLPE (visual, scale 0-100%) (Lolium perenne (LOLPE); [15]): 10%; activity LOLSS resistant (visual, scale 0-100%) ([14]; resistant biotype): 70%; activity LOLSS sensitive (visual, scale 0-100%) ([14]; sensitive biotype): 70%; activity STEME (visual, scale 0-100%) (Stellaria media (STEME) [7]; Incorporation into the soil): 0%; activity POAAN (visual, scale 0-100%) (Poa annua (POAAN); PE application): 0%; activity MATCH IU soil (visual, scale 0-100%) [11]: 0%; activity MATCH IU/EC73 soil (visual, scale 0-100%) ([11]; IU/EC73 soil): 15% |
